Assay results taken from patent US10329262B2, “Quinazolinone antibiotics” (priority 2013, dated 2019).

Experiments:
PBP2a allosteric site = target: T1, PBP2a allosteric site (Staphylococcus aureus, UniProt Q53707); assay: Intrinsic fluorescence quenching of oxacillin-acylated PBP2a; format: binding, S. aureus
T1 construct: made in house
Procedure: FIG. 11. Binding of quinazolinone 2 to PBP2a allosteric site. […] (a) The change in the maximum fluorescence intensity was calculated as the difference compared to the intensity in the absence of compound. Any dilution effect was subtracted out using a buffer titration control. […] A nonlinear regression was used to fit the data, with an R^2 of 0.9997. (b) Emission scans of PBP2a intrinsic fluorescence with excitation at 280 nm. Antibiotic 2 was titrated in to give the final concentrations shown and 3 scans (1 min cycles) were averaged for each titration.
Therefore, we have evidence for binding of antibiotic 2 to the allosteric site (X-ray) and to the active site (kinetic assays for competitive inhibition and X-ray altered conformations for the active-site residues) of PBP2a). Binding of antibiotic 2 at the allosteric site induces conformational changes at the active site (FIG. 7B). All of these movements serve to double the area and the volume of the active site.
Therefore, we have evidence for binding of the antibiotic 2 to the allosteric site (X-ray) and to the active site (kinetic assays for competitive inhibition and X-ray altered conformations for the active-site residues) of PBP2a. Binding of antibiotic 2 at the allosteric site induces conformational changes at the active site (FIG. 7b). All of these movements serve to double the area and volume of the active site.

[1] = test system: S. aureus ATCC 29213 (MSSA); assay: MIC, CLSI broth microdilution, S. aureus ATCC 29213; format: cell-based, Staphylococcus aureus
Procedure: MICs were evaluated following the CLSI microdilution method in BBL™ Mueller-Hinton II broth (Wikler et al., Clinical Laboratory Standards Institute Document M7-A7, 29 (2009)). Briefly, two-fold serial dilutions of compound were prepared in triplicate in 96-well plates and inoculated with 5×10^5 cfu/mL of the bacterial suspension. Plates were incubated at 37° C. for 16-20 hours.

T7 transcription = assay: In vitro transcription assay (TranscriptAid T7 kit); format: biochemical
Excerpt: For in vitro translation, the E. coli S30 Extract System for Circular DNA was used to set up the reactions using plasmid pCP19 containing the lacZ gene for β-galactosidase. Reaction mixtures were supplemented with two-fold dilutions of antibiotic 2 and the β-Galactosidase Enzyme Assay System with Reporter Lysis Buffer was used to quantify the amount of β-galactosidase translated by measuring absorbance at 420 nm. For in vitro transcription, a TranscriptAid T7 High Yield Transcription kit was used with a pET24a/dacB DNA construct under the T7 promoter. The purified plasmid was linearized using the restriction endonuclease XhoI and then purified according to the manufacturer's instructions. A series of samples were prepared and supplemented with two-fold dilutions of antibiotic 2. Samples were analyzed by running on a denaturing 1% formaldehyde agarose gel and stained with ethidium bromide to visualize RNA. Intensities of the bands were quantified and compared to the control to determine the amount of transcription occurring in the presence of 2.

red blood cells = assay: Hemolysis; format: cell-based, human; conditions: at 50 μg/mL
Procedure: Fresh heparinized human blood was washed three times by centrifugation at 1,200 g for 10 min in 100 mM PBS, pH 7.4. A 10% red-blood cell (RBC) suspension was prepared in PBS. Antibiotic 2 at 0.5, 5, and 50 μg/mL was added to aliquots of the 10% RBC suspension and incubated at 37° C. A positive control of 0.2% Triton was used. Samples were centrifuged at 1,200 g for 10 min and the supernatant measured for absorbance at 541 nm.

MRSA ATCC 27660 = assay: Mouse peritonitis model of MRSA infection; format: in vivo, mice
Procedure: We evaluated several compounds in in vivo mouse infection models, as well as in pharmacokinetic (PK) studies in mice (Table 1). The in vivo efficacy was determined using the rapid mouse peritonitis model of infection, in which the end point is death or survival in 48 hours. We initially dosed the compounds intravenously (iv) at a single dose level. If the compound has good in vivo efficacy after iv administration, we then evaluated efficacy at five dose levels. We also investigated in vivo efficacy after oral (po) administration.
Groups (n=6/group) of mice were infected with MRSA (0.5 mL of ATCC 27660 at a final concentration of 5×10^7 CFU/mL in 5% porcine mucin) intraperitoneally (ip). Following infection, mice were given iv doses by tail vein injection of compound 2, vancomycin (5 mg/kg, positive control), or vehicle at 30 min and 4.5 h after infection. The number of surviving mice was monitored for 48 h. The negative control (vehicle) typically results in the death of all mice. Quinazolinone 2 was dissolved in saline, sterile-filtered, and administered at doses of 2.5, 5, 7.5, 10, 20, and 30 mg/kg. The ED50 value was calculated using GraphPad prism 5.

T1 sequence (Q53707 entry or part of it): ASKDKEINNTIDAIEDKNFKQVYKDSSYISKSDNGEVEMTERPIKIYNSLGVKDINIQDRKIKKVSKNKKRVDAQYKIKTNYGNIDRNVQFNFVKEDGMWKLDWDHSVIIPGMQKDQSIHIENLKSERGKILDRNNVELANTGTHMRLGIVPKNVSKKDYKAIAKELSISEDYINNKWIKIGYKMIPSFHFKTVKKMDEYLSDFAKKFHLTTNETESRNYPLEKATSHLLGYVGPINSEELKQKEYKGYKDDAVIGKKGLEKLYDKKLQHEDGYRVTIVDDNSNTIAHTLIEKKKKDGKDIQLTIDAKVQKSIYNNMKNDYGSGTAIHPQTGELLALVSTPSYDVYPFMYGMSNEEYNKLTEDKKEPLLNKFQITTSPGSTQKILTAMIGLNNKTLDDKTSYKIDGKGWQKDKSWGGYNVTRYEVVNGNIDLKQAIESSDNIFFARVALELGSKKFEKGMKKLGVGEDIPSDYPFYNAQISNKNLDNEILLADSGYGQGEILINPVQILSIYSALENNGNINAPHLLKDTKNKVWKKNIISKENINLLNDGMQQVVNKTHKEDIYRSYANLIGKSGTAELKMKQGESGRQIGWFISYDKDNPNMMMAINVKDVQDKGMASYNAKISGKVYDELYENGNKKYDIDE

Work on `N#Cc1ccc(/C=C/c2nc3ccccc3c(=O)n2-c2cccc(C(=O)O)c2)cc1.[Na]` [Compound 2, Sodium (E)-3-(3-carboxyphenyl)-2-(4-cyanostyryl)quinazolin-4(3H)-one] yielded a Kd (PBP2a allosteric site) of 16.3 µM, an MIC ([1]; Staphylococcus aureus) of 2 µg/mL and an In vitro AB activity (MIC) ([1]; Table 2.1, S. aureus ATCC 29213) of 2 µg/mL. For the same compound, the “Increase of MIC in the presence of BSA” value ([1]; with BSA vs without) was 4 fold, the “Inhibition of in vitro transcription” value (T7 transcription) was “did not show any inhibition” and the “Hemolysis of red blood cells” value (red blood cells) was less than 1%. For the same compound, the “In Vivo Efficacy (survived/total mice)” value (MRSA ATCC 27660; 10 mg/kg iv at 30 min and 4.5 hr after infection, n = 6, 48 h) was 5/6 @ 10 mg/kg and the ED50 (MRSA ATCC 27660; Staphylococcus aureus, iv administration, dose giving survival of 50% of the animals, read-out: Median effective dose (ED50)) was 10 mg/kg.
